US10538561B2, “Peptide for treating inflammatory diseases” (priority 2015, dated 2020)

Experiments:
[1] = Cell viability (MTT assay) in SK-MEL-28; assay type: cell-based, Human; details: human, SK-MEL-28 melanoma cells
Protocol: (§1) Cell Lines/Cells: Human Keratinocytes (HaCaT); Human melanoma (SK-MEL-28); Human PBMCs. Test Item: IS181 Treatment regimen: Single addition—24 h, ^#Multiple additions (3)−72 h; Concentration range: 1 ng/ml-2 mg/ml (triplicate wells); Sera Condition: […] Method of estimation: MTT assay. […] Positive control: Triton-X-100, Doxorubicin Hydrochloride.

[2] = system: Human melanoma (SK-MEL-28); experiment: Cell viability (MTT assay) in SK-MEL-28; assay type: cell-based
Protocol: as §1

[3] = system: Human Keratinocytes (HaCaT); experiment: Cell cycle assay (Sub-G0/G1); assay type: cell-based; details: 48 h
Protocol: Cell lines: Human Keratinocytes (HaCaT); test Item: IS181; treatment regimen: treated twice (once after 24 hours)-48 hours; concentration range: 100 6 g/ml-5000 6 g/ml. […] Cells were treated with IS181 for 24 hours. After 24 h, cells were again treated with IS181 for 24 hours. After 48 h of first treatment, cells were harvested and fixed in ethanol overnight. Cells were washed and stained with Cell cycle reagent and acquired on flow cytometer. […] Positive control: Curcumin.

TNF-α = TNF-α level in TNF-α stimulated HaCaT; assay type: cell-based, Human; details: 24 h
Protocol: Effect on pro-inflammatory cytokines against TNF-α/LPS+PMA stimulation: TNF-α; IFN-γ; TARC; TSLP; IL-6; IL-8: Cell lines: Human keratinocytes (HaCaT); test item (TI); IS181; experimental steps: pre-treatment of cells with TI for 2 hours; stimulation with TNF-α: 20 ng/ml; stimulation with LPS+PMA-10 μg/ml LPS+40 ng/ml PMA; supernatant collection for cytokine analysis after 24 hours; concentration range: 0.1 μg/ml-100 μg/ml (duplicate wells); cytokines: TNF-α; IFN-γ; TARC; TSLP; IL-6; IL-8. Method of estimating cytokines: ELISA; positive control: dexamethasone.
Cell line: HaCaT (Human Keratinocytes); TI Treatment regimen: Pretreatment for 2 h; TI Concentration range: 0.1 μg/ml-100 μg/ml (duplicate wells); TNF-α stimulation: 20 ng/ml; LPS+PMA stimulation: 10 μg/ml LPS+40 ng/ml PMA; Time point for supernatants collection: 24 h; Method of estimation: ELISA; Positive control: Dexamethasone

IL-17 = IL-17 secretion in ConA stimulated splenocytes; assay type: cell-based, mouse; parameters: inhibition of IL-17 secretion as compared to Control (ConA) levels: dose or concentration left out as unconfirmed; details: for % Inhibition of IL-17 wrt Control (ConA) / Conc. of IL-17: splenocytes + ConA, 24 h
Protocol: Cell lines: mouse splenocytes; test item: IS181; treatment regimen: single addition—24 hours; concentration range: 10 μg/ml-5000 μg/ml.A) Identification of non-cytotoxic concentrations: splenocytes were treated with IS181 for 24 hours. Effect on cell viability was assessed by MTT assay. Concentrations leading to >75% cell viability were selected for IL-17 assay. B) IL-17 assay: splenocytes were treated with IS181 in presence of ConA stimulation for 24 hours. Supernatants were collected and stored at −20° C. till analysed. Levels of IL-17 were analysed in supernatants by ELISA. Percent inhibition of IL-17 secretion was calculated with reference to ConA treated levels. Positive control: curcumin.

JAK1 = JAK1 (Homo sapiens, UniProt P23458); experiment: Biochemical kinase assay JAK1
Sequence of JAK1 (P23458 whole entry): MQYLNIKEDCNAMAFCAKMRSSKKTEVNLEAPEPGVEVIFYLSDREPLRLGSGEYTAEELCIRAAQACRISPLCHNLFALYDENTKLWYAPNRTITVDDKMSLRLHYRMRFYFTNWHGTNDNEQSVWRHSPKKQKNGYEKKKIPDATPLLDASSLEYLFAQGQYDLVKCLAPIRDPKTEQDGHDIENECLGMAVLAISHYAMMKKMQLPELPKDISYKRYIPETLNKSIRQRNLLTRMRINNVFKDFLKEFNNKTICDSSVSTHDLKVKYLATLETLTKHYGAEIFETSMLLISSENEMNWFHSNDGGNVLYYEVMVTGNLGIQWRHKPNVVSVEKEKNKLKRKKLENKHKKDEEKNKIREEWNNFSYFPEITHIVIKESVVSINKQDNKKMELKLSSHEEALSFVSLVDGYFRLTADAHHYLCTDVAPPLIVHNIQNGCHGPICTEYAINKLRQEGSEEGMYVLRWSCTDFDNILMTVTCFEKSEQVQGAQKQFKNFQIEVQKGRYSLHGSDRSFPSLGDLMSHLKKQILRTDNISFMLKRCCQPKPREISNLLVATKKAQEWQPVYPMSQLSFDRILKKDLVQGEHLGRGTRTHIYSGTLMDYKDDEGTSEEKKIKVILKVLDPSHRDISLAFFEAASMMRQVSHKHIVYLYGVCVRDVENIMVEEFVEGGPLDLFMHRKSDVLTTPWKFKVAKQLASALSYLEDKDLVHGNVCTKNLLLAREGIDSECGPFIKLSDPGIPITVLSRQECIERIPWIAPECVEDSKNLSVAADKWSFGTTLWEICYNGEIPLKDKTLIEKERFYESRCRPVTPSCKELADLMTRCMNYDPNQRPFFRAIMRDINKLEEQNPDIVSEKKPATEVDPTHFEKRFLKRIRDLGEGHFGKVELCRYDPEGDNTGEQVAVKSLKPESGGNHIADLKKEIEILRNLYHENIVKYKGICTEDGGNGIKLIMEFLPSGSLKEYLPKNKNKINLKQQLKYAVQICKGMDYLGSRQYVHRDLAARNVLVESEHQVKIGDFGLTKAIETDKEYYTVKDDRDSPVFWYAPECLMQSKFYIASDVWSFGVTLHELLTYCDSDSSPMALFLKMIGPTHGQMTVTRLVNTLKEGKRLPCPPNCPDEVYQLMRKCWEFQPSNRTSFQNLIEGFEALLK
Protocol: Test system: cell free assays; test items: IS181; concentrations tested: 1 ng/ml-5000 μg/ml; Kinases: a) Cell free assays: EGFR (ErbB1); FLT1 (VEGFR1); JAK1; JAK3 MAP2K1 (MEK1); PDGFRA (PDGFR alpha); PRKCA (PKC alpha); b) cell based assay: JAK-STAT.

IC50 ([2]; 24 h): > 700 µM
IC50 value ([2]; 24 h): >1000 µg/mL
IC50 ([2]; 72 h): 160 µM
IC50 value ([2]; SK-MEL-28, 72 h): 230 µg/mL
inhibition at 10 µg/mL (JAK1; 10 μg/ml): 14%
inhibition at 50 µg/mL (JAK1; cell free, 50 μg/ml): 14%
inhibition at 100 µg/mL (JAK1; cell free, 100 μg/ml): -42%
inhibition at 250 µg/mL (JAK1; cell free, 250 μg/ml): -93%
inhibition at 500 µg/mL (JAK1; cell free, 500 μg/ml): -185%
Substance: H-WVQRVVEKFLK-OH [IS181, H-Trp-Val-Gln-Arg-Val-Val-Glu-Lys-Phe-Leu-Lys-OH]
cytotoxicity at 24 h, 0.001 μg/ml ([1]; SK-MEL-28, 24 h, 0.001 μg/ml): -4.04%
cytotoxicity at 24 h, 0.01 μg/ml ([1]; SK-MEL-28, 24 h, 0.01 μg/ml): -1.91%
cytotoxicity at 24 h, 0.05 μg/ml ([1]; SK-MEL-28, 24 h, 0.05 μg/ml): 2.39%
cytotoxicity at 24 h, 0.1 μg/ml ([1]; SK-MEL-28, 24 h, 0.1 μg/ml): -4.93%
cytotoxicity at 24 h, 0.5 μg/ml ([1]; SK-MEL-28, 24 h, 0.5 μg/ml): -1.29%
cytotoxicity at 24 h, 1 μg/ml ([1]; SK-MEL-28, 24 h, 1 μg/ml): -12.5%
cytotoxicity at 24 h, 5 μg/ml ([1]; SK-MEL-28, 24 h, 5 μg/ml): -16.3%
cytotoxicity at 24 h, 10 μg/ml ([1]; SK-MEL-28, 24 h, 10 μg/ml): -14%
cytotoxicity at 24 h, 50 μg/ml ([1]; SK-MEL-28, 24 h, 50 μg/ml): -6.96%
cytotoxicity at 24 h, 100 μg/ml ([1]; SK-MEL-28, 24 h, 100 μg/ml): -2.97%
cytotoxicity at 24 h, 1000 μg/ml ([1]; SK-MEL-28, 24 h, 1000 μg/ml): -11.9%
cytotoxicity at 72 h, 0.1 μg/ml ([1]; SK-MEL-28, 72 h, 0.1 μg/ml): -10.9%
cytotoxicity at 72 h, 0.5 μg/ml ([1]; SK-MEL-28, 72 h, 0.5 μg/ml): -14.2%
cytotoxicity at 72 h, 1 μg/ml ([1]; SK-MEL-28, 72 h, 1 μg/ml): -20%
cytotoxicity at 72 h, 5 μg/ml ([1]; SK-MEL-28, 72 h, 5 μg/ml): 9.03%
cytotoxicity at 72 h, 10 μg/ml ([1]; SK-MEL-28, 72 h, 10 μg/ml): 6.16%
cytotoxicity at 72 h, 50 μg/ml ([1]; SK-MEL-28, 72 h, 50 μg/ml): -4.36%
cytotoxicity at 72 h, 100 μg/ml ([1]; SK-MEL-28, 72 h, 100 μg/ml): 5.78%
cytotoxicity at 72 h, 500 μg/ml ([1]; SK-MEL-28, 72 h, 500 μg/ml): 94%
cytotoxicity at 72 h, 1000 μg/ml ([1]; SK-MEL-28, 72 h, 1000 μg/ml): 91%
cytotoxicity at 72 h, 2000 μg/ml ([1]; SK-MEL-28, 72 h, 2000 μg/ml): 92%
Selectivity Index -IC50 (PBMC)/IC50 (HaCaT/SK-MEL-28 cells) ([2]; 24 h): ≤2
Selectivity Index -IC50 (PBMC)/IC50 (HaCaT/SK-MEL-28 cells) ([2]; 72 h): 4
cytotoxicity ([2]; SK-MEL-28, 72 h, concentrations ≥0.5 mg/ml): > 90%
cytotoxic effects ([2]; SK-MEL-28, after 24 h of treatment): no cytotoxic effects
increase in pro-apoptotic cells (Sub-G0/G1 population) vs untreated ([3]; 100 μg/ml): 9.1 fold
increase in pro-apoptotic cells (Sub-G0/G1 population) vs untreated ([3]; 500 μg/ml): 7.1 fold
increase in pro-apoptotic cells (Sub-G0/G1 population) vs untreated ([3]; 1000 μg/ml): 2.3 fold
increase in pro-apoptotic cells (Sub-G0/G1 population) vs untreated ([3]; 5000 μg/ml): 29.7 fold
TNF-α % decrease with respect to TNF-α (TNF-α; 0.1 μg/ml): −7.5%
TNF-α Conc (TNF-α; 0.1 μg/ml): 22731.8 pg/mL
TNF-α % decrease with respect to TNF-α (TNF-α; 1 μg/ml): 5.8%
TNF-α Conc (TNF-α; 1 μg/ml): 19924.1 pg/mL
TNF-α % decrease with respect to TNF-α (TNF-α; 5 μg/ml): −8.1%
TNF-α Conc (TNF-α; 5 μg/ml): 22852.1 pg/mL
TNF-α % decrease with respect to TNF-α (TNF-α; 10 μg/ml): −15.7%
TNF-α Conc (TNF-α; 10 μg/ml): 24469.9 pg/mL
TNF-α % decrease with respect to TNF-α (TNF-α; 100 μg/ml): −18.8%
TNF-α Conc (TNF-α; 100 μg/ml): 25125.0 pg/mL
inhibition of IL-17 secretion as compared to Control (ConA) levels (IL-17; splenocytes): 48.2%-71.4%
% Inhibition of IL-17 wrt Control (ConA) (IL-17; 10 μg/ml): 71.4%
Conc. of IL-17 (IL-17; 10 μg/ml): 13.3 pg/mL
% Inhibition of IL-17 wrt Control (ConA) (IL-17; 50 μg/ml): 59.5%
Conc. of IL-17 (IL-17; 50 μg/ml): 18.8 pg/mL
% Inhibition of IL-17 wrt Control (ConA) (IL-17; 100 μg/ml): 62.1%
Conc. of IL-17 (IL-17; 100 μg/ml): 17.6 pg/mL
% Inhibition of IL-17 wrt Control (ConA) (IL-17; 500 μg/ml): 48.2%
Conc. of IL-17 (IL-17; 500 μg/ml): 24.1 pg/mL
% Inhibition of IL-17 wrt Control (ConA) (IL-17; 1000 μg/ml): 58.8%
Conc. of IL-17 (IL-17; 1000 μg/ml): 19.2 pg/mL
